According to patent US12329774B2, “Method and composition for enhancing the quality and benefits of sleep” (priority 2020, dated 2025):
In brackets after ≈: the same amount, converted by molar mass. Entries after “also recorded” stand apart in the source; their conditions may differ.

How the values were obtained:
[1] = test system: Bax, Bcl-2, Caspase-3, eNOS, iNOS; experiment: Western blot of brain cell survival indicators in caffeine-induced wakefulness mice; settings: caffeine-induced wake mouse; result in words; listed as magnesium di-L-theanate
[2] = test system: brain waves (spike amplitude / spike frequency); experiment: Electrocorticography (ECoG) of brain electrical activity in caffeine-induced wakefulness mice; format: in vivo; settings: caffeine-induced wake mouse, electrical activity over 120 minutes, result in words
Protocol: Animals were anesthetized with urethane ([…], i.p., Sigma U2500). Body temperature was maintained between 36.5 and 37° C. with homeothermic blanket. Mice were stabilized under a stereotaxic frame (World Precision Instruments, Berlin; Germany) and an incision was made on the skin along the anterior/posterior line of the skull. The left […] was removed gently with a dental drill (Marothon-3; Korea). Two Ag—AgCl sphere electrodes were placed over the left hemisphere with the reference electrode attached on the pinna.
Brains were rapidly removed, frozen on dry ice and stored at −80° C. until analyses could be performed.

Solubility in water = format: physicochemical
Storage stability = format: physicochemical; settings: temperature range, low relative humidity; result in words; listed as Magnesium di-L-theanate compositions
[3] = test system: GABAA-R2, GABAB-R1, GABAB-R2, 5-HT1A, GluA1, GluN1, GluN2A; experiment: Western blot of GABA and other neurotransmitter receptors in caffeine-induced wakefulness mice; settings: caffeine-induced wake mouse; result in words; listed as magnesium di-L-theanate compositions
MDA, SOD, CAT, GSHPx = experiment: Brain antioxidant status in caffeine-induced wakefulness mice; format: in vivo; settings: caffeine-induced wake mouse, result in words
Protocol: Animals were anesthetized with urethane ([…], i.p., Sigma U2500). Body temperature was maintained between 36.5 and 37° C. with homeothermic blanket. Mice were stabilized under a stereotaxic frame (World Precision Instruments, Berlin; Germany) and an incision was made on the skin along the anterior/posterior line of the skull. The left […] was removed gently with a dental drill (Marothon-3; Korea). Two Ag-AgCl sphere electrodes were placed over the left hemisphere with the reference electrode attached on the pinna. […] Brains were rapidly removed, frozen on dry ice and stored at -80° C. until analyses could be performed. Biochemical and Oxidative Stress Markers-Serum melatonin, serotonin, and dopamine were measured using ELISA kits. Brain levels of malondialdehyde (MDA) were measured by HPLC. Brain activities of superoxide dismutase (SOD), catalase (CAT) and glutathione peroxidase (GSHPx) were measured using ELISA kits for each analyte.

[4] = test system: caffeine-induced wakefulness mice; experiment: Caffeine-induced wakefulness mouse model: sleep latency, sleep duration, number falling asleep; format: in vivo
Protocol: Animals and Experimental design: Seven male BALB/c mice per treatment arm (age: 8 weeks, weight: […]) were housed in a controlled environment with a 12:12-h light-dark cycle at 22° C. and were provided with mice chow and water ad libitum. All experiments were conducted under the National Institutes of Health's Guidelines for the Care and Use of Laboratory Animals and approved by the Ethics Committee of the Medipol University.
Drugs and materials: Study product was provided by Nutrition21 LLC (Mg-Theanate #1=lot AA209-122-20, Mg-Theanate #2=lot BLS-DN 13). […] The concentration of each drug solution was adjusted so that the volume injected was constant at 1.0 ml/kg BW. All drug solutions were prepared fresh daily, and were administered intraperitoneally (i.p.). […]

[5] = Observations after administration in the animal studies of Example 5 (absorption, side effects); format: in vivo, mice
Excerpt: Neither component in magnesium […] compositions of the invention (i.e., magnesium or L-theanine) has been reported to cause addiction.

[6] = test system: brain serotonin, dopamine and melatonin; experiment: Brain neurotransmitter levels by ELISA in caffeine-induced wakefulness mice; format: in vivo; settings: caffeine-induced wake mouse, result in words
[7] = test system: pentobarbital-induced sleep; experiment: Pentobarbital-induced sleep test mouse model; format: in vivo, mice; settings: for Duration of sleep / Sleep latency period: pentobarbital 42 mg/kg, test article 20 mg theanine/kg per os 45 min before
Protocol: Subsequently, pentobarbital was administered intraperitoneally to induce a hypnotic state that promoted sleep. The effects on sleep of the test agents were monitored.
Pentobarbital-induced sleep was performed according to published methods with slight modifications. Mice were fasted for 24 h prior to the experiment. Each test article was dissolved or suspended in physiological saline and then was administered per os. The groups were administered doses of 20 mg/kg theanine, Mg-theanate #1 (20 mg theanine/kg), and Mg-theanate #2 (20 mg theanine/kg), respectively. Forty-five minutes later, a hypnotic dose of pentobarbital (42 mg/kg) was injected into the left side of the abdomen. After injection, the mice were placed in individual cages and subjected to measurements of sleep latency and duration. Sleep latency was defined as the period between pentobarbital injection and the loss of righting reflex (sleep onset), and sleep duration denoted the time elapsed between loss of the righting reflex and recovery.
Statistical Analyses—Data are shown as mean±SEM. Sample size was calculated based on a power of 85% and a p-value of 0.05. Given that assumption, a sample size of seven per treatment was calculated. The data were analyzed using the GLM procedure of SAS (SAS Institute: SAS User's Guide: Statistics). The treatments were compared using ANOVA and Student's unpaired t-test; P<0.05 was considered statistically significant.

[8] = listed as magnesium di-L-theanate compositions
[9] = caffeine-induced awake mouse model, result in words
[10] = caffeine-induced wake mouse, caffeine alone or + test article (20 mg theanine/kg)
[11] = result in words, listed as magnesium di-L-theanate composition
[12] = result in words, listed as magnesium di-L-theanate compositions

## CCNC(=O)CCC(N)C(=O)O [Mg Theanate Composition, magnesium di-L-theanate]
[1]
  Brain cell survival (Bax, Bcl-2, Caspase-3, eNOS, and iNOS, indicators of cell damage): significant normalization
[2]
  Amplitude of brain waves: increased significantly and was maintained throughout the 120 minute study period. Spike
  Spike frequency of electrical activity in the brain: frequency was significantly reduced and comparable to caffeine/theanine-treated animals.
[2]; [8]
  Amplitude of brain waves: significant increase
  Spike frequency of electrical activity in the brain: significant reduction
Solubility in water
  solubility: ~650 mg/mL (≈ 3730 mM)
Storage stability
  Storage stability: stable during storage under conditions having temperatures ranging from −80 °C to +120 °C at low relative humidity; also recorded: greatest at temperatures from −80 °C to +60 °C at low relative humidity
[3]
  GABA and other neurotransmitter receptors (receptor levels): significant diminution in the caffeine-related reduction
MDA, SOD, CAT, GSHPx
  Levels of protective enzymes (SOD, CAT, GSHPx): protective enzymes were decreased, the adverse changes were not as great as those shown by
MDA, SOD, CAT, GSHPx; [8]
  Level of MDA (indicator of oxidative stress): decrease in oxidative stress
  Levels of protective enzymes (SOD, CAT, GSHPx): restoration of brain anti-oxidant status
[4]; as early as
  Time after administration at which beneficial enhancement of sleep properties was exhibited: about 30 minutes
[4]; [9]
  Number of animals falling asleep as compared to L-theanine-treated animals: significant increase
  Sleep duration as compared to L-theanine itself: significant lengthening and normalization
  Sleep latency period as compared to L-theanine itself: significant decrease
[4]; [10]
  Number of animals falling asleep (share of the group that fell asleep): + Mg Theanate Composition: 70% of the group fell asleep
  Sleep duration period: + Mg Theanate Composition: The sleep duration period of about 50 minutes was greatly
  Sleep latency period: slightly more than 1 minute, a significantly shorter period than found in caffeine-treated minutes
[5]
  Adverse effects on activities during or immediately after wakefulness: No adverse effects were observed
  Side effects during or after treatment: No side effects were observed
[5]; result in words
  Absorption and distribution following administration: rapidly absorbed and distributed to the brain
[6]
  Neurotransmitter levels (brain serotonin, dopamine, and melatonin): animals, levels of all three neurotransmitters were more significantly restored to control
[6]; [8]
  Neurotransmitter levels (brain serotonin, dopamine, and melatonin): significant restoration
[7]; 20 mg theanine/kg per os
  Animals that fell asleep (10-minute period following pentobarbital administration): over 50%
[7]; 20 mg theanine/kg per os, result in words
  Likelihood to fall asleep within the 10 minute limit as compared to theanine: significantly more likely to fall asleep
[7]; [11]
  Duration of sleep: significantly increased
  Sleep latency period: significantly reduced
[7]; [12]
  Duration of sleep: significantly and more effectively increased
  Sleep latency period: significantly and more effectively decreased
